Series [1] concerns the target T1, Nitric oxide synthase from induced murine macrophage cell line J774A-1 (Mus musculus, UniProt P29477).
T1 construct: The reaction is started by adding 50 μl of cell lysate (prepared as above); endogenous in cells; host or cells: J774A-1 murine macrophage cell line, induced with LPS and IFN-gamma; crude cell lysate
Briefly: Screen 1: nitric oxide synthase inhibition, conversion of 3H-L-arginine into 3H-L-citrulline, lysate of induced J774A-1 cells. The series is classed as biochemical. Conditions: J774A-1 cell lysate (LPS/IFNg induced), 1 hour at room temperature; read-out: IC50 (concentration of drug substance which gives 50% enzyme inhibition in the assay). How it is done: The activity of compounds of formula (I), or a pharmaceutically acceptable salt, enantiomer or racemate thereof, may be screened for nitric oxide synthase inhibiting activity by a procedure based on that of Förstermann et al., Eur. J. Pharm., 1992, 225, 161-165. Nitric oxide synthase converts ^3H-L-arginine into ^3H-L-citrulline which can be separated by cation exchange chromatography and quantified by liquid scintillation counting.
Enzyme is prepared, after induction, from the cultured murine macrophage cell line J774A-1 (obtained from the laboratories of the Imperial Cancer Research Fund). J774A-1 cells are cultured in Dulbeccos Modified Eagles Medium (DMEM) supplemented with 10% foetal bovine serum, 4 mM L-glutamine and antibiotics (100 units/ml penicillin G, […] streptomycin & […] amphotericin B). Cells are routinely grown in […] flasks containing 35 ml medium kept at 37° C. and in a humidified atmosphere containing 5% CO2. […]
Labelled L-citrulline is separated from labelled L-arginine using Dowex AG-SOW. […] After allowing the samples to dry the L-citrulline is quantified by scintillation counting.
In a typical experiment basal activity is 300 dpm per 75 μl sample which is increased to 1900 dpm in the reagent controls. […] Compounds are tested at a range of concentrations and from the inhibitions obtained IC50 values are calculated. […]

We go through eight compounds from patent US20040242871A1, “Novel arylheteroalkylamine derivatives” (priority 2001, published 2004).

The compound `Cl.Cl.N#Cc1ccc(C(F)(F)F)cc1S[C@H](C[C@H](N)CO)c1cccnc1` [Example 55, 2-[[(1R,3S)-3-Amino-4-hydroxy-1-(3-pyridinyl)butyl]thio]-4-(trifluoromethyl)benzonitrile dihydrochloride] had a melting point of 238 to 240 °C. Take `Cl.N#Cc1ccc(Cl)cc1S[C@H](C[C@H](N)CO)c1cncnc1` [Example 56, 2-[[(1R,3S)-3-Amino-4-hydroxy-1-(5-pyrimidyl)butyl]thio]-4-chlorobenzonitrile hydrochloride]: the melting point fell in the range of 120 to 130 °C. Same read-out and setting: in the case of `Cl.Cl.N#Cc1cc(F)c(Cl)cc1S[C@H](C[C@H](N)CO)c1cccnc1` [Example 57, 2-[[(1R,3S)-3-Amino-4-hydroxy-1-(3-pyridinyl)butyl]thio]-4-chloro-5-fluorobenzonitrile dihydrochloride] it was 252 to 255 °C; in that of `Cl.Cl.N#Cc1ccc(Br)cc1S[C@H](C[C@H](N)CO)c1cccnc1` [Example 58, 2-[[(1R,3S)-3-Amino-4-hydroxy-1-(3-pyridyl)butyl]thio]-4-bromobenzonitrile dihydrochloride], 278 to 280 °C.

For `Cc1nc(O[C@H](C[C@H](N)CO)c2nccs2)c(C#N)cc1F.Cl` [Example 59, 2-[[(1R,3S)-3-Amino-4-hydroxy-1-(2-thiazolyl)butyl]oxy]-5-fluoro-6-methyl-3-pyridinecarbonitrile hydrochloride], the melting point is 148 to 150 °C. Same read-out and setting: in the case of `COc1cc(S[C@H](C[C@H](N)CO)c2sccc2F)c(C#N)cn1.O=C(O)/C=C/C(=O)O` [Example 60, 4-[[(1R,3S)-3-Amino-1-(3-fluoro-2-thienyl)-4-hydroxybutyl]thio]-6-methoxy-3-pyridinecarbonitrile (E)-butenedioate salt] it was 177 to 178 °C.

For `N#Cc1cc(F)c(Cl)cc1O[C@H](C[C@H](N)CO)c1scnc1Cl.O=C(O)/C=C/C(=O)O` [Example 61, 2-[[(1R,3S)-3-Amino-1-(4-chloro-5-thiazolyl)-4-hydroxybutyl]oxy]-4-chloro-5-fluorobenzonitrile (E)-butenedioate salt], the melting point is 177 to 178 °C. Regarding `N=C(N)NN` [aminoguanidie], in series [1], the IC50 came to 10 µM.
